This passage reports T/C results from PubChem BioAssay AID330 (DTP/NCI, 2004).

This assay has as its system P388 leukemia ip, CD2F1 mice, survival T/C. The experiment in a line: NCI In Vivo Anticancer Drug Screen. Data for tumor model P388 Leukemia (intraperitoneal) in CD2F1 (CDF1) mice. The note with it: endpoint: median survival time, higher = longer survival. The essentials: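 Mice carrying the transplanted tumor received test compound or vehicle. Survival was recorded in each group, and the value is the treated-group measurement divided by that of the vehicle-treated control group.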

The mark [1] stands for this setting: dose: 50.0 mg/kg/injection, schedule: Q01DX005 (ip), vehicle: Klucel (hydroxypropylcellulose) (HPC).
Setting [2] is: dose: 50.0 mg/kg/injection, schedule: Q01DX005 (ip), vehicle: saline with Tween-80.
Where [3] appears, read: dose: 100.0 mg/kg/injection, schedule: Q01DX005 (ip), vehicle: saline with Tween-80.
Where [4] appears, read: dose: 100.0 mg/kg/injection, schedule: Q01DX005 (ip), vehicle: Klucel (hydroxypropylcellulose) (HPC).
[5] abbreviates: dose: 200.0 mg/kg/injection, schedule: Q01DX005 (ip), vehicle: Klucel (hydroxypropylcellulose) (HPC).
Where [6] appears, read: dose: 25.0 mg/kg/injection, schedule: Q01DX009 (ip), vehicle: saline with Tween-80.
The mark [7] stands for this setting: dose: 60.0 mg/kg/injection, schedule: Q01DX005 (ip), vehicle: saline.
The mark [8] stands for this setting: dose: 120.0 mg/kg/injection, schedule: Q01DX005 (ip), vehicle: saline.
The mark [9] stands for this setting: dose: 50.0 mg/kg/injection, schedule: Q01DX009 (ip), vehicle: Klucel (hydroxypropylcellulose) (HPC).
[10] abbreviates: dose: 100.0 mg/kg/injection, schedule: Q01DX009 (ip), vehicle: saline with Tween-80.
Setting [11] is: dose: 200.0 mg/kg/injection, schedule: Q01DX009 (ip), vehicle: saline with Tween-80.
The mark [12] stands for this setting: dose: 50.0 mg/kg/injection, schedule: Q01DX009 (ip), vehicle: saline with Tween-80.

Values joined by “and” are separate entries in the source; they are usually repeats but may differ in a detail not shown here. Equal entries are not always repeated. Toxic doses and inconclusive results are not listed.

Regarding `C/C=C1\C[N+]2(C)CCC34c5ccccc5NC32C(O)CC1C4(CO)C(=O)OC` (centres undefined), the T/C runs as follows: (dose: 4.0 mg/kg/injection, schedule: Q01DX009 (ip), vehicle: saline with Tween-80) 110 % of control; (dose: 4.0 mg/kg/injection, schedule: Q01DX009 (ip), vehicle: saline) 113 % of control; (dose: 8.0 mg/kg/injection, schedule: Q01DX009 (ip), vehicle: saline with Tween-80) 110 % of control; (dose: 8.0 mg/kg/injection, schedule: Q01DX009 (ip), vehicle: saline) 97 % of control; (dose: 16.0 mg/kg/injection, schedule: Q01DX009 (ip), vehicle: saline with Tween-80) 103 % of control; (dose: 16.0 mg/kg/injection, schedule: Q01DX009 (ip), vehicle: saline) 105 % of control. Further, the T/C (dose: 32.0 mg/kg/injection, schedule: Q01DX009 (ip), vehicle: saline with Tween-80) is 110 % of control and the T/C (dose: 32.0 mg/kg/injection, schedule: Q01DX009 (ip), vehicle: saline) is 98 % of control.
On to `COC1NC(=O)NC(=O)C1=[N+]=[N-]` (centres undefined), for which the T/C was 168 % of control (dose: 2.5 mg/kg/injection, schedule: Q01DX009 (ip), vehicle: saline); 163 % of control (dose: 5.0 mg/kg/injection, schedule: Q01DX009 (ip), vehicle: saline sonified); 154 % of control (dose: 5.0 mg/kg/injection, schedule: Q01DX009 (ip), vehicle: saline with Tween-80); 191 % of control (dose: 7.5 mg/kg/injection, schedule: Q01DX009 (ip), vehicle: saline with Tween-80); 159 % of control (dose: 10.0 mg/kg/injection, schedule: Q01DX009 (ip), vehicle: saline sonified); 109 % of control (dose: 75.0 micrograms/kg/injection, schedule: Q01DX009 (ip), vehicle: saline). Besides, the T/C (dose: 150.0 micrograms/kg/injection, schedule: Q01DX009 (ip), vehicle: saline) was 113 % of control.
For the compound `CC(c1ccccc1)N1OC1(C)C` (centres undefined), the T/C was 101 % of control (dose: 12.5 mg/kg/injection, schedule: Q01DX005 (ip), vehicle: Klucel (hydroxypropylcellulose) (HPC)); 106 % of control (dose: 25.0 mg/kg/injection, schedule: Q01DX005 (ip), vehicle: Klucel (hydroxypropylcellulose) (HPC)); 102 % of control under setting [1].
For the compound `O=C(NCCCl)Nc1ccn(C(=O)NCCCl)c(=O)n1`, the T/C reads like this: under setting [2], 95 % of control; under setting [3], 100 % of control.
Consider `O=C1Oc2ccccc2CC1C(=O)c1ccc(Cl)cc1` (centres undefined), for which the T/C reads like this: under setting [2], 106 % of control; under setting [3], 103 % of control; (dose: 200.0 mg/kg/injection, schedule: Q01DX005 (ip), vehicle: saline with Tween-80) 100 % of control.
Take `COc1cc(C(=O)NN=C(C)C)cc(OC)c1OC`: the T/C is, setting by setting: under setting [1], 101 % of control; under setting [4], 104 % of control; under setting [5], 101 % of control.
Regarding `O/N=c1\cc(-c2ccccc2)oc2ccccc12`, the T/C reads like this: (dose: 16.7 mg/kg/injection, schedule: Q01DX009 (ip), vehicle: saline with Tween-80) 97 % of control; under setting [6], 102 % of control; (dose: 37.5 mg/kg/injection, schedule: Q01DX009 (ip), vehicle: saline with Tween-80) 100 % of control.
In the case of `O=C(O)C(=O)O`, the T/C was 98 % of control (dose: 12.5 mg/kg/injection, schedule: Q01DX005 (ip), vehicle: saline); 97 % of control (dose: 25.0 mg/kg/injection, schedule: Q01DX005 (ip), vehicle: saline); 92 % of control under setting [2].
As for `C=Cc1c(C)c(OC(C)=O)cc2c1-c1ccc(OC(C)=O)c(C)c1CC2`, the T/C by setting is: (dose: 2.25 mg/kg/injection, schedule: Q01DX009 (ip), vehicle: Klucel (hydroxypropylcellulose) (HPC)) 103 % of control; (dose: 4.5 mg/kg/injection, schedule: Q01DX009 (ip), vehicle: Klucel (hydroxypropylcellulose) (HPC)) 100 % of control; (dose: 9.0 mg/kg/injection, schedule: Q01DX009 (ip), vehicle: Klucel (hydroxypropylcellulose) (HPC)) 94 % of control; (dose: 18.0 mg/kg/injection, schedule: Q01DX009 (ip), vehicle: Klucel (hydroxypropylcellulose) (HPC)) 100 % of control.
Regarding `Nc1nc2c(c(-c3nc(N)nc4c3CCc3ccccc3-4)n1)CCc1ccccc1-2`, the T/C by setting is: under setting [7], 105 % of control; under setting [8], 99 % of control; (dose: 240.0 mg/kg/injection, schedule: Q01DX005 (ip), vehicle: saline) 107 % of control.
For `O=C(CCCl)Nc1ccccc1C(=O)CCc1cn(C(=O)CCCl)c2ccccc12`, the T/C was 107 % of control (dose: 60.0 mg/kg/injection, schedule: Q01DX005 (ip), vehicle: saline with Tween-80); 102 % of control (dose: 120.0 mg/kg/injection, schedule: Q01DX005 (ip), vehicle: saline with Tween-80); 96 % of control (dose: 240.0 mg/kg/injection, schedule: Q01DX005 (ip), vehicle: saline with Tween-80).
With `COc1cc(I)cc(OC)c1OC`, the T/C is 97 % of control (dose: 6.25 mg/kg/injection, schedule: Q01DX009 (ip), vehicle: Klucel (hydroxypropylcellulose) (HPC)); 94 % of control (dose: 12.5 mg/kg/injection, schedule: Q01DX009 (ip), vehicle: Klucel (hydroxypropylcellulose) (HPC)); 96 % of control (dose: 25.0 mg/kg/injection, schedule: Q01DX009 (ip), vehicle: Klucel (hydroxypropylcellulose) (HPC)); 91 % of control under setting [9].
In the case of `N#Cc1nc(CC(=O)c2ccc(Cl)cc2Cl)c(CC(=O)c2ccc(Cl)cc2Cl)nc1C#N`, the T/C by setting is: under setting [7], 112 % of control; under setting [8], 106 % of control.
As for `CC1CCCCC1C(C)(C#N)Nc1ccccc1` (centres undefined), the T/C by setting is: under setting [10], 109 % of control; under setting [11], 113 % of control; (dose: 400.0 mg/kg/injection, schedule: Q01DX009 (ip), vehicle: saline with Tween-80) 118 % of control.
On to `COc1ccc(/C=C2\NC(c3ccccc3)OC2=O)cc1OC` (centres undefined), for which the T/C reads like this: under setting [9], 98 % of control; (dose: 100.0 mg/kg/injection, schedule: Q01DX009 (ip), vehicle: Klucel (hydroxypropylcellulose) (HPC)) 89 % of control; (dose: 200.0 mg/kg/injection, schedule: Q01DX009 (ip), vehicle: Klucel (hydroxypropylcellulose) (HPC)) 100 % of control.
In the case of `COC1c2cc3ccccc3nc2-c2ccccc2C1(C)C` (centres undefined), the T/C was 99 % of control (dose: 25.0 mg/kg/injection, schedule: Q01DX009 (ip), vehicle: other); 96 % of control (dose: 50.0 mg/kg/injection, schedule: Q01DX009 (ip), vehicle: other); 93 % of control (dose: 100.0 mg/kg/injection, schedule: Q01DX009 (ip), vehicle: other); 89 % of control (dose: 200.0 mg/kg/injection, schedule: Q01DX009 (ip), vehicle: other); 89 % of control (dose: 400.0 mg/kg/injection, schedule: Q01DX009 (ip), vehicle: other).
Consider `CCN(CC)CCOc1ccc2c(c1)C(=O)c1cc(OCCN(CC)CC)ccc1-2`, for which the T/C is, setting by setting: (dose: 3.13 mg/kg/injection, schedule: Q01DX009 (ip), vehicle: saline with Tween-80) 109 % of control; (dose: 6.25 mg/kg/injection, schedule: Q01DX009 (ip), vehicle: saline with Tween-80) 109 % of control; (dose: 12.5 mg/kg/injection, schedule: Q01DX009 (ip), vehicle: saline with Tween-80) 109 % of control; under setting [6], 100 % of control and 113 % of control; (dose: 25.0 mg/kg/injection, schedule: Q01DX009 (ip), vehicle: saline) 87 % of control; under setting [12], 90 % of control. Moreover, the T/C is, setting by setting: (dose: 50.0 mg/kg/injection, schedule: Q01DX009 (ip), vehicle: saline) 100 % of control; (dose: 100.0 mg/kg/injection, schedule: Q01DX009 (ip), vehicle: saline) 100 % of control.
Take `CCNc1ccc2ccccc2c1N=Nc1ccc(N=Nc2ccccc2)cc1`: the T/C is 90 % of control under setting [6]; 90 % of control and 94 % of control under setting [12]; 95 % of control under setting [10]; 100 % of control under setting [11].
Consider `CCOc1cc2c(cc1C(C)c1ccc(OCc3ccccc3)c(OC)c1)OCO2` (centres undefined), for which the T/C reads like this: under setting [1], 97 % of control; under setting [4], 97 % of control; under setting [5], 92 % of control.
